In patent EP1731520A1, “Pyrrolo[2,3-d]pyrimidine derivatives which are antagonists of adenosine A1, A2A, and A3” (OSI Pharmaceuticals, Inc., priority 1999, dated 2001):
pKi: −log10 of the molar value.

What follows are compounds tested against human A1 receptor subtype (Homo sapiens, UniProt P30542) (assay: not given). Conditions: Table 15, Adenosine A1 Receptor Selective Compounds.
human A1 receptor subtype, sequence (P30542 whole entry): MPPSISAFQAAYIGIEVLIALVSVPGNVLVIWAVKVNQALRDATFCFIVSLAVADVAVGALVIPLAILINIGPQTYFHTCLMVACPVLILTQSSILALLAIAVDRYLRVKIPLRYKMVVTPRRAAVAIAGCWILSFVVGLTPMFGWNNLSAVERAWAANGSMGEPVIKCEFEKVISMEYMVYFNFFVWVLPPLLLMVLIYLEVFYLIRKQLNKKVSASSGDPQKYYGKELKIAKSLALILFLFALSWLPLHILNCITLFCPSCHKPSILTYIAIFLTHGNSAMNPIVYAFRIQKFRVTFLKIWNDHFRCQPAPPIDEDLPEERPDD

SMILES | Ki-A1 (selectivity versus other three subtypes)
CC(=O)NCCNc1nc(-c2ccccc2)nc2[nH]ccc12 [Compound 1501] | * (at least 10 times more selective than other three subtypes.)

Same assay, conditions: read-out: Al Binding Ki; Table 6, Effect of N6-Substituent

pKi | SMILES
< 8.00 | Cc1[nH]c2nc(-c3ccccc3)nc(NC3CCC(NS(C)(=O)=O)CC3)c2c1C (centres unmarked) [Compound 604]
6.10 | Cc1[nH]c2nc(-c3ccccc3)nc(NC3CCC(OC(=O)c4ccccc4)CC3)c2c1C (centres unmarked) [Compound 611]
7.46 | Cc1[nH]c2nc(-c3ccccc3)nc(N[C@@H]3C[C@@H](O)[C@@H](O)C3)c2c1C [Compound 616]

Same assay, conditions: read-out: Al Binding Ki; Table 7, Effect of C2-Substituent

pKi | SMILES
5.67 | Cc1[nH]c2nc(C(C)C)nc(N[C@H]3CC[C@H](O)CC3)c2c1C [Compound 708]

Same assay, conditions: saturation and competition radio ligand binding

A1 receptor binding affinity compared with reference compounds 1318 or 1319 | SMILES
equaled or surpassed | COC(=O)c1cc2c(NC3CCC(O)CC3)nc(-c3ccccc3)nc2[nH]1 (centres unmarked) [Compound 1517, 4-(4-Hydroxy-cyclohexylamino) -2-phenyl-7H-pyrrolo[2,3-d]pyrimidine-6-carboxylic acid methyl ester]
equaled or surpassed | NC(=O)C1CCCN1c1nc(-c2ccccc2)nc2[nH]c(COCCO)cc12 (centres unmarked) [Compound 1513, 1-[6-(2-Hydroxy-ethoxymethyl) -2-phenyl-7H-pyrrolo[2,3-d]pyrimidin-4-yl]-pyrrolidine-2-carb oxylic acid amide]
equaled or surpassed | NC(=O)[C@@H]1CCCN1c1nc(-c2ccccc2)nc2[nH]c(CCC(=O)O)cc12 [Compound 1509, 3-[4-((S)-2-Carbamoyl-pyrrolodin-1-yl)-2-phenyl-7H-pyrrolo[2,3-d]pyrimidin-6-yl]-propionic acid]

What follows are compounds tested against T1, human A3 receptor subtype (Homo sapiens, UniProt P0DMS8) (assay: Adenosine 3 receptor competition radioligand binding, [125I] AB-MECA, HEK293 membranes). Conditions: Table 17, Adenosine A3 Receptor Selective Compounds.
T1 sequence (P0DMS8 1-318): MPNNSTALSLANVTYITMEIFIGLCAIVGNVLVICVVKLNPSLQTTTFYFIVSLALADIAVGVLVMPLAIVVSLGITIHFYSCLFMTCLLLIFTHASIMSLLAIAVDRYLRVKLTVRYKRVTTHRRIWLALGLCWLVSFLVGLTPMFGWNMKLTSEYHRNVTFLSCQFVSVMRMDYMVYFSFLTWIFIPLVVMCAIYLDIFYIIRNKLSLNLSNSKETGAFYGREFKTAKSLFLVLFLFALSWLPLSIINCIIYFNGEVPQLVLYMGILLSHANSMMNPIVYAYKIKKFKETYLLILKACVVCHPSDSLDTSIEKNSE

SMILES | Ki-A3 (selectivity versus other three subtypes)
CNC(=O)N1CCCCC1CNc1nc(-c2ccccc2)nc2[nH]c(COc3cccc(Cl)c3)cc12 (centres unmarked) [Compound 1715] | * (at least 10 times more selective than other three subtypes.)
OC1CCN(c2nc(-c3ccccc3)nc3[nH]c(-c4ccccc4)cc23)C1 (centres unmarked) [Compound 1703] | * (at least 10 times more selective than other three subtypes.)
OC1CCC(Nc2nc(-c3ccccc3)nc3[nH]ccc23)C1 (centres unmarked) [Compound 1706] | * (at least 10 times more selective than other three subtypes.)
O=C(NCCNc1nc(-c2ccccc2)nc2[nH]ccc12)c1ccc[nH]1 [Compound 1707] | * (at least 10 times more selective than other three subtypes.)
NC(=O)CC1CCN(c2nc(-c3ccccc3)nc3[nH]c(COc4cccc(Cl)c4)cc23)C1 (centres unmarked) [Compound 1717] | * (at least 10 times more selective than other three subtypes.)
CNC(=O)NCCCNc1nc(-c2ccc(Cl)cc2)nc2[nH]ccc12 [Compound 1719] | * (at least 10 times more selective than other three subtypes.)
NC(=O)C(Cc1ccccc1)Nc1nc(-c2ccccc2)nc2[nH]c(-c3ccccc3)cc12 (centres unmarked) [Compound 1710] | * (at least 10 times more selective than other three subtypes.)
CCN(CC)C(=O)NCCNc1nc(-c2ccccc2)nc2[nH]c(C)c(C)c12 [Compound 1701] | * (at least 10 times more selective than other three subtypes.)
OCC1CCCN(c2nc(-c3ccccc3)nc3[nH]c(COc4cccc(Cl)c4)cc23)C1 (centres unmarked) [Compound 1718] | * (at least 10 times more selective than other three subtypes.)
OC[C@@H](Nc1nc(-c2ccccc2)nc2[nH]c(COc3cccc(Cl)c3)cc12)c1ccccc1 [Compound 1714] | * (at least 10 times more selective than other three subtypes.)
COC(=O)CC1CCN(c2nc(-c3ccccc3)nc3[nH]c(COc4cccc(Cl)c4)cc23)C1 (centres unmarked) [Compound 1716] | * (at least 10 times more selective than other three subtypes.)
CC(=S)NCCNc1nc(-c2ccccc2)nc2[nH]c(C)c(C)c12 [Compound 1702] | * (at least 10 times more selective than other three subtypes.)
